In this assay the target is GLP-1 Receptor (Homo sapiens, UniProt P43220). As to the kind of experiment: GLP-1R agonist cAMP stimulation assay (Method 3, HEK293/GLP1R/CRE-LUC, HDB). It counts as cell-based. Conditions: HDB HEK293/CRE-Luc cell line. The procedure: The methodology for detection of cAMP using EFC requires incubation with 20 μL of cAMP XS+ED/CL lysis cocktail for one hour followed by incubation with 20 μL cAMP XS+EA reagent for three hours at room temperature. Microplates are read following signal generation with a PerkinElmer Envision instrument utilizing chemiluminescent signal detection. Compound activity is analyzed using CBIS data analysis suite (ChemInnovation, CA). Percentage activity is calculated using the following formula: % Activity=100%×(mean RLU of test sample−mean RLU of vehicle control)/(mean RLU of MAX control−mean RLU of vehicle control)) Method 3: Activation of GLP-1 receptor is known to stimulate cyclic AMP (cAMP) production in cells which indicates primary coupling to the Gαs subunit of the G protein heterotrimeric complex.
Chain of GLP-1 Receptor (P43220 24-463): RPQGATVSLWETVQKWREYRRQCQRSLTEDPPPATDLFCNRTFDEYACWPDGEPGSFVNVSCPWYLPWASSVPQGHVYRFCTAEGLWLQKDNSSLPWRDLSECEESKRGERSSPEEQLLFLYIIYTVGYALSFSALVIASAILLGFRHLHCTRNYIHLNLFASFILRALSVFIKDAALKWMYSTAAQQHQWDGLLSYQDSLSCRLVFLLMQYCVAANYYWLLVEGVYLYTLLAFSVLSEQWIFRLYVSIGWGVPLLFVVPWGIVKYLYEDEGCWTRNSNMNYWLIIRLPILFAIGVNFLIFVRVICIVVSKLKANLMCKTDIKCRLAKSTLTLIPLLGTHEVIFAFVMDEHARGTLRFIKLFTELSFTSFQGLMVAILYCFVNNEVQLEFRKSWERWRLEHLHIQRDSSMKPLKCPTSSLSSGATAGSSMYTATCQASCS
To optimize functional activity directed toward Gαs coupling, a HEK293/CRE-Luc cell line developed by HDB stably expressing the GLP-1 Receptor was used. 200× concentration of compound working solutions were prepared (Agilent Technologies Bravo) with 1/2 log serial dilution in 384-well Echo LDV plate (Labcyte, Cat #LP-0200). 50 nL/well 200× concentration of compound working solutions were moved to 384-well white low volume plate (Greiner, Cat #784075) using Labcyte ECHO550. 1×10^5 cells/mL HEK293/GLP1R/CRE-LUC(HD Biosciences) cell suspensions prepared with assay buffer [DPBS containing 0.5 mM IBMX(Sigma, Cat #15879) and 0.1% BSA(GENVIEW, Cat #FA016-100 g)], 10 μL cell suspensions were added to each well of previous generated assay plate which already contains 50 nL compound at 200× concentration using ThermoFisher Multidrop Combi (1000 cells/well). Seal the plate and incubate at 37° C. with 5% CO2 for 30 min.
After incubation the cAMP assay signal was generated using cAMP dynamic 2 Kit (Cisbio). 5 μL cAMP-d2 working solution was added to each well, followed with 5 μL Anti-cAMP antibody-cryptate working solution added to each well using ThermoFisher Multidrop Combi. Incubate at room temperature for 1 hour protected from light. […] (Method 3)

[1] abbreviates: read-out: GLP1R cAMP Stimulation DR: EC50 (nM) [Species: Human, Assay Cell Line: HDB].
[2] abbreviates: read-out: GLP1R cAMP Stimulation DR: pEC50 (M) [Species: Human, Assay Cell Line: HDB] (converted).

Read-outs that look alike come from different tables or passages of the source.

Consider `Cc1cc(-n2nc3c(c2-n2ccn(-c4ccc(P(C)(C)=O)cc4)c2=O)[C@H](C)N(C(=O)c2cc4cc(C5CCOC(C)(C)C5)ccc4n2[C@@]2(c4noc(=O)[nH]4)C[C@@H]2C)CC3)cc(C)c1F` (stereo partly drawn) [Compound 102a, 3-((1S,2S)-1-(2-((S)-3-(3-(4-(dimethylphosphoryl)phenyl)-2-oxo-2,3-dihydro-1H-imidazol-1-yl)-2-(4-fluoro-3,5-dimethylphenyl)-4-methyl-4,5,6,7-tetrahydro-2H-pyrazolo[4,3-c]pyridine-5-carbonyl)-5-(2,2-dimethyltetrahydro-2H-pyran-4-yl)-1H-indol-1-yl)-2-methylcyclopropyl)-1,2,4-oxadiazol-5 (4H)-one], for which the EC50 is less than 0.1 nM under setting [1] and no more than 0.1 nM under setting [2].

`CCP(=O)(CC)c1ccc(-n2ccn(-c3c4c(nn3-c3cc(C)c(F)c(C)c3)CCN(C(=O)c3cc5cc([C@H]6CCOC(C)(C)C6)ccc5n3[C@@]3(c5noc(=O)[nH]5)C[C@@H]3C)[C@H]4C)c2=O)cc1` [Compound 130b, 3-((1S,2S)-1-(2-((S)-3-(3-(4-(diethylphosphoryl)phenyl)-2-oxo-2,3-dihydro-1H-imidazol-1-yl)-2-(4-fluoro-3,5-dimethylphenyl)-4-methyl-4,5,6,7-tetrahydro-2H-pyrazolo[4,3-c]pyridine-5-carbonyl)-5-((S)-2,2-dimethyltetrahydro-2H-pyran-4-yl)-1H-indol-1-yl)-2-methylcyclopropyl)-1,2,4-oxadiazol-5 (4H)-one]: the EC50 was less than 0.1 nM under setting [1] and no more than 0.1 nM under setting [2].

Take `CNc1cc(-n2ccn(-c3c4c(nn3-c3cc(C)c(F)c(C)c3)CCN(C(=O)c3cc5cc(C6CCOCC6)ccc5n3[C@@]3(c5noc(=O)[nH]5)C[C@@H]3C)[C@H]4C)c2=O)ccc1P(C)(=O)C(C)(C)C` (stereo partly drawn) [Compound 131a, 3-((1S,2S)-1-(2-((4S)-3-(3-(4-(tert-butyl(methyl)phosphoryl)-3-(methylamino)phenyl)-2-oxo-2,3-dihydro-1H-imidazol-1-yl)-2-(4-fluoro-3,5-dimethylphenyl)-4-methyl-4,5,6,7-tetrahydro-2H-pyrazolo[4,3-c]pyridine-5-carbonyl)-5-(tetrahydro-2H-pyran-4-yl)-1H-indol-1-yl)-2-methylcyclopropyl)-1,2,4-oxadiazol-5 (4H)-one]: the EC50 reads like this: under setting [1], 0.1 to 0.2 nM; under setting [2], 0.1 to 1 nM.

As for `CCP(=O)(CC)c1ccc(-n2ccn(-c3c4c(nn3-c3cc(C)c(F)c(C)c3)CCN(C(=O)c3cc5cc(C6CCOCC6)ccc5n3[C@@]3(c5noc(=O)[nH]5)C[C@@H]3C)[C@H]4C)c2=O)cc1C(F)F` [Compound 142a, 3-((1S,2S)-1-(2-((S)-3-(3-(4-(diethylphosphoryl)-3-(difluoromethyl)phenyl)-2-oxo-2,3-dihydro-1H-imidazol-1-yl)-2-(4-fluoro-3,5-dimethylphenyl)-4-methyl-4,5,6,7-tetrahydro-2H-pyrazolo[4,3-c]pyridine-5-carbonyl)-5-(tetrahydro-2H-pyran-4-yl)-1H-indol-1-yl)-2-methylcyclopropyl)-1,2,4-oxadiazol-5 (4H)-one], the EC50 was less than 0.1 nM under setting [1] and no more than 0.1 nM under setting [2].

For `CNc1cc(-n2ccn(-c3c4c(nn3-c3cc(C)c(F)c(C)c3)CCN(C(=O)c3cc5cc(C6CCOCC6)ccc5n3C3(c5noc(=O)[nH]5)CC3)[C@H]4C)c2=O)ccc1P(C)(=O)C(C)(C)C` (stereo partly drawn) [Compound 149a, 3-(1-(2-((4S)-3-(3-(4-(tert-butyl(methyl)phosphoryl)-3-(methylamino)phenyl)-2-oxo-2,3-dihydro-1H-imidazol-1-yl)-2-(4-fluoro-3,5-dimethylphenyl)-4-methyl-4,5,6,7-tetrahydro-2H-pyrazolo[4,3-c]pyridine-5-carbonyl)-5-(tetrahydro-2H-pyran-4-yl)-1H-indol-1-yl)cyclopropyl)-1,2,4-oxadiazol-5 (4H)-one], the EC50 runs as follows: under setting [1], 0.1 to 0.2 nM; under setting [2], 0.1 to 1 nM.

(Values after US11926643B2, “Heterocyclic GLP-1 agonists” (Gasherbrum Bio, Inc., priority 2020, dated 2024).)
